Assays:
[1] = target: T1, Thyroid hormone receptor beta (Homo sapiens, UniProt P10828)
T1 sequence (P10828 whole entry): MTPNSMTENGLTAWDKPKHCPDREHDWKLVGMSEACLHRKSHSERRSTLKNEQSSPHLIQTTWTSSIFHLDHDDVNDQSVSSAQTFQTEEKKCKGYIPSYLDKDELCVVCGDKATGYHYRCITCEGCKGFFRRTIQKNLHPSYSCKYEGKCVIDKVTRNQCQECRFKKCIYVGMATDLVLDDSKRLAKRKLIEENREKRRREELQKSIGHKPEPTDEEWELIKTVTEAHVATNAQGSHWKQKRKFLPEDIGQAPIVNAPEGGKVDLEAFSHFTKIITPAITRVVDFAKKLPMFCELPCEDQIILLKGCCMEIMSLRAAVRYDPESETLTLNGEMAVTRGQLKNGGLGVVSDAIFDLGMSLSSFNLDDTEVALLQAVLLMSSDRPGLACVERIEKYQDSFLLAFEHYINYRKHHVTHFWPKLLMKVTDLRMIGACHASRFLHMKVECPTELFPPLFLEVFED

[2] = target: T2, Thyroid hormone receptor alpha (Homo sapiens, UniProt P10827); experiment: Agonist activity at human thyroid hormone receptor alpha expressed in CV1 cells by TRE-luciferase assay; type: functional, cell-based, CV-1
T2 sequence (P10827 whole entry): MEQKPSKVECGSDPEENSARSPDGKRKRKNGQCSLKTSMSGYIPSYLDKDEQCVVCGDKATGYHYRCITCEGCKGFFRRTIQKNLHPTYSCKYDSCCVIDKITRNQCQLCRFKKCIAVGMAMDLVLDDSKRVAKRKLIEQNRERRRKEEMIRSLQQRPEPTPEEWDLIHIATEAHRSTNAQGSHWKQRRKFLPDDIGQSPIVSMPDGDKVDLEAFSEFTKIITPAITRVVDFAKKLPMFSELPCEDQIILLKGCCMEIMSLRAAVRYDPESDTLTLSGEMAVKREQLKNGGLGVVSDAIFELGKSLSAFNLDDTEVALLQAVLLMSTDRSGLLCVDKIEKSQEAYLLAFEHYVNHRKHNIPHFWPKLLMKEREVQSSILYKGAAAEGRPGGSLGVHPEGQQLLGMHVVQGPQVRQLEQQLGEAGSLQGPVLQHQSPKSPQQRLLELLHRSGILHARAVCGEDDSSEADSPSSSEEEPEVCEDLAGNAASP

| SMILES | EC50 [1] | EC50 [2] |
| --- | --- | --- |
| CC(C)(C)c1cc(Oc2c(Cl)cc(Nc3c(O)c(=O)c3=O)cc2Cl)ccc1O | 317 nM | 1060 nM |
| CC(C)c1cc(Oc2c(Cl)cc(Nc3c(O)c(=O)c3=O)cc2Cl)ccc1O | 70 nM | 222 nM |

From ChEMBL document CHEMBL1155100, “Design and synthesis of novel 3-hydroxy-cyclobut-3-ene-1,2-dione derivatives as thyroid hormone receptor beta (TR-beta) selective ligands” (Bioorg Med Chem Lett, 2008)
